Data reported in patent US20260049092A1, “ANTIBACTERIAL COMPOUNDS” (Blacksmith Medicines, Inc., priority 2022, published 2026).
Values after ≈ are worked out from the molar mass of the structure shown. Read-outs that look alike come from different tables or passages of the source.

Legend:
Assay in all cases: Bacterial susceptibility testing (MIC, broth microdilution)
Type in all cases: cell-based
[1] = test system: E. coli ATCC25922; conditions: Escherichia coli
Description: (§1) Minimal inhibitory concentrations (MIC) were determined by the broth microdilution method in accordance with the Clinical and Laboratory Standards Institute (CLSI) guidelines. In brief, organism suspensions were adjusted to a final inoculum between 3×10^5 and 7×10^5 colony-forming units (CFU)/mL. Drug dilutions and inocula were made in sterile, cation adjusted Mueller-Hinton Broth (Beckton Dickinson). In wells, an inoculum volume of 100 μL was mixed to 2 μL of DMSO with 2-fold serial dilutions of drug. All inoculated microdilution trays were incubated in ambient air at 35° C. for 18-24 h. Following incubation, the lowest concentration of the drug that prevented visible growth (OD600 nm<0.05) was recorded as the MIC. Performance of the assay was monitored by the use of laboratory quality -control strains and compounds with defined MIC spectrum, in accordance with CLSI guidelines.

[2] = test system: K. pneumoniae ATCC13883; conditions: Klebsiella pneumoniae
Description: as §1

[3] = test system: P. aeruginosa ATCC27853; conditions: Pseudomonas aeruginosa
Description: as §1

[4] = test system: P. aeruginosa PAO1; conditions: Pseudomonas aeruginosa
Description: as §1

[5] = ATCC25922, broth microdilution, cation adjusted Mueller-Hinton Broth, 35° C., 18-24 h, read-out: E. coli ATCC25922 MIC
[6] = ATCC13883, broth microdilution, cation adjusted Mueller-Hinton Broth, 35° C., 18-24 h, read-out: K. pneumoniae ATCC13883 MIC
[7] = ATCC27853, broth microdilution, cation adjusted Mueller-Hinton Broth, 35° C., 18-24 h, read-out: P. aeruginosa ATCC27853 MIC
[8] = PAO1, broth microdilution, cation adjusted Mueller-Hinton Broth, 35° C., 18-24 h, read-out: P. aeruginosa PAO1 MIC
[9] = ATCC25922, read-out: E. coli ATCC25922 MIC
[10] = ATCC13883, read-out: K. pneumoniae ATCC13883 MIC
[11] = ATCC27853, read-out: P. aeruginosa ATCC27853 MIC
[12] = PAO1, read-out: P. aeruginosa PAO1 MIC

Compound	MIC [1, 5]	MIC [2, 6]	MIC [3, 7]	MIC [4, 8]	MIC [1, 9]	MIC [2, 10]	MIC [3, 11]	MIC [4, 12]
CO[C@@H]1COC[C@H]1Oc1ccc(-c2ccc(C#C[C@@H](CO)n3ccnc3[C@H](C)O)cc2)cc1 (single isomer, unassigned) [Compound 126]	0.5 µg/mL (≈ 1.11 µM)	1 µg/mL (≈ 2.23 µM)	4 µg/mL (≈ 8.92 µM)	2 µg/mL (≈ 4.46 µM)				
C[C@H](O)c1nccn1[C@@H](C#Cc1ccc(-c2ccc(CO[C@@H]3COC[C@H]3O)c(F)c2)cc1)CO (racemic) [Compound 44, (rac-trans)-4-((3-fluoro-4′-((S)-4-hydroxy-3-(2-((S)-1-hydroxyethyl)-1H-imidazol-1-yl)but-1-yn-1-yl)-[1,1′-biphenyl]-4-yl)methoxy)tetrahydrofuran-3-ol]	4 µg/mL (≈ 8.57 µM)	8 µg/mL (≈ 17.1 µM)	8 µg/mL (≈ 17.1 µM)	8 µg/mL (≈ 17.1 µM)				
C[C@H](O)c1nccn1[C@@H](C#Cc1ccc(-c2ccc(O[C@@H]3COC[C@H]3O)cc2F)cc1)CO (single isomer, unassigned) [Compound 3]	1 µg/mL (≈ 2.21 µM)	2 µg/mL (≈ 4.42 µM)	2 µg/mL (≈ 4.42 µM)	2 µg/mL (≈ 4.42 µM)				
C[C@H](O)c1nccn1[C@@H](C#Cc1ccc(-c2ccc([C@H]3C[C@](N)(C#N)C3)cc2)cc1)CO (racemic) [Compound 101, (rac-cis)-1-amino-3-(4′-((S)-4-hydroxy-3-(2-((S)-1-hydroxyethyl)-1H-imidazol-1-yl)but-1-yn-1-yl)-[1,1′-biphenyl]-4-yl)cyclobutane-1-carbonitrile]	0.5 µg/mL (≈ 1.17 µM)	1 µg/mL (≈ 2.34 µM)	4 µg/mL (≈ 9.38 µM)	1 µg/mL (≈ 2.34 µM)				
C[C@H](O)c1nccn1[C@@H](C#Cc1ccc(-c2ccc(O[C@@H]3COC[C@H]3O)cc2Cl)cc1)CO (single isomer, unassigned) [Compound 47]	1 µg/mL (≈ 2.13 µM)	4 µg/mL (≈ 8.53 µM)	4 µg/mL (≈ 8.53 µM)	4 µg/mL (≈ 8.53 µM)				
CC(=O)N1CC(Nc2ccc(-c3ccc(C#C[C@@H](CO)n4ccnc4[C@H](C)O)cc3)cc2)C1 (single isomer, unassigned) [Compound 76]	2 µg/mL (≈ 4.5 µM)	16 µg/mL (≈ 36 µM)	4 µg/mL (≈ 9 µM)	4 µg/mL (≈ 9 µM)				
C[C@H](O)c1nccn1[C@@H](C#Cc1ccc(-c2ccc(O[C@H]3CCOC[C@@H]3O)c(F)c2)cc1)CO (single isomer, unassigned) [Compound 53]	1 µg/mL (≈ 2.14 µM)	4 µg/mL (≈ 8.57 µM)	8 µg/mL (≈ 17.1 µM)	4 µg/mL (≈ 8.57 µM)				
C[C@H](O)c1nccn1[C@@H](C#Cc1ccc(-c2ccc(N3CCC3)cc2)cc1)CO [Compound 108, (S)-4-(4′-(azetidin-1-yl)-[1,1′-biphenyl]-4-yl)-2-(2-((S)-1-hydroxyethyl)-1H-imidazol-1-yl)but-3-yn-1-ol]	0.38 µg/mL (≈ 0.981 µM)	> 32 µg/mL	> 32 µg/mL	> 32 µg/mL				
C[C@H](O)c1nccn1[C@@H](C#Cc1ccc(-c2ccc(O[C@@H]3C[C@H]3NCC#N)cc2)cc1)CO (racemic) [Compound 141, 2-(((rac-trans)-2-((4′-((S)-4-hydroxy-3-(2-((S)-1-hydroxyethyl)-1H-imidazol-1-yl)but-1-yn-1-yl)-[1,1′-biphenyl]-4-yl)oxy)cyclopropyl)amino) acetonitrile]					1 µg/mL (≈ 2.26 µM)	1 µg/mL (≈ 2.26 µM)	8 µg/mL (≈ 18.1 µM)	2 µg/mL (≈ 4.52 µM)
C[C@H](O)c1nccn1[C@@H](C#Cc1ccc(-c2ccc(CN[C@@H]3COC[C@H]3O)cc2)cc1)CO (racemic) [Compound 65]	2 µg/mL (≈ 4.47 µM)	4 µg/mL (≈ 8.94 µM)	4 µg/mL (≈ 8.94 µM)	2 µg/mL (≈ 4.47 µM)				
CNC(=O)[C@H]1C[C@@H](Oc2ccc(-c3ccc(C#C[C@@H](CO)n4ccnc4[C@H](C)O)cc3)cc2)C1 (racemic) [Compound 137, (rac-cis)-3-((4′-((S)-4-hydroxy-3-(2-((S)-1-hydroxyethyl)-1H-imidazol-1-yl)but-1-yn-1-yl)-[1,1′-biphenyl]-4-yl)oxy)-N-methylcyclobutane-1-carboxamide]	0.5 µg/mL (≈ 1.09 µM)	2 µg/mL (≈ 4.35 µM)	1 µg/mL (≈ 2.18 µM)	0.5 µg/mL (≈ 1.09 µM)				
C[C@H](O)c1nccn1[C@@H](C#Cc1ccc(-c2ccc(O[C@@H]3COC[C@H]3O)cc2)c(F)c1)CO (racemic) [Compound 5, (rac-trans)-4-((2′-fluoro-4′-((S)-4-hydroxy-3-(2-((S)-1-hydroxyethyl)-1H-imidazol-1-yl)but-1-yn-1-yl)-[1,1′-biphenyl]-4-yl)oxy)tetrahydrofuran-3-ol]	2 µg/mL (≈ 4.42 µM)	4 µg/mL (≈ 8.84 µM)	4 µg/mL (≈ 8.84 µM)	4 µg/mL (≈ 8.84 µM)				
CNC(=O)CN1CC(Oc2ccc(-c3ccc(C#C[C@@H](CO)n4ccnc4[C@H](C)O)cc3)cc2)C1 (single isomer, unassigned) [Compound 100]	1 µg/mL (≈ 2.11 µM)	2 µg/mL (≈ 4.21 µM)	2 µg/mL (≈ 4.21 µM)	2 µg/mL (≈ 4.21 µM)				
C[C@H](O)c1nccn1[C@@H](C#Cc1ccc(-c2ccc(O[C@@H]3CCOC[C@H]3O)c(F)c2)cc1)CO (racemic) [Compound 51, (rac-trans)-4-((3-fluoro-4′-((S)-4-hydroxy-3-(2-((S)-1-hydroxyethyl)-1H-imidazol-1-yl)but-1-yn-1-yl)-[1,1′-biphenyl]-4-yl)oxy)tetrahydro-2H-pyran-3-ol]	2 µg/mL (≈ 4.29 µM)	4 µg/mL (≈ 8.57 µM)	8 µg/mL (≈ 17.1 µM)	2 µg/mL (≈ 4.29 µM)				
C[C@H](O)c1nccn1[C@@H](C#Cc1ccc(-c2ccc(O[C@@H]3CCOC[C@H]3O)cc2F)cc1)CO (single isomer, unassigned) [Compound 55]	1 µg/mL (≈ 2.14 µM)	4 µg/mL (≈ 8.57 µM)	8 µg/mL (≈ 17.1 µM)	4 µg/mL (≈ 8.57 µM)				
C[C@H](O)c1nccn1[C@@H](C#Cc1ccc(-c2ccc(C3CN(CCC#N)C3)cc2)cc1)CO [Compound 140, 3-(3-(4′-((S)-4-hydroxy-3-(2-((S)-1-hydroxyethyl)-1H-imidazol-1-yl)but-1-yn-1-yl)-[1,1′-biphenyl]-4-yl)azetidin-1-yl)propanenitrile]	0.25 µg/mL (≈ 0.567 µM)	0.5 µg/mL (≈ 1.13 µM)	4 µg/mL (≈ 9.08 µM)	2 µg/mL (≈ 4.54 µM)				
C[C@H](O)c1nccn1[C@@H](C#Cc1ccc(-c2ccc3c(c2)OCCO3)cc1)CO [Compound 82, (S)-4-(4-(2,3-dihydrobenzo[b][1,4]dioxin-6-yl)phenyl)-2-(2-((S)-1-hydroxyethyl)-1H-imidazol-1-yl) but-3-yn-1-ol]	0.25 µg/mL (≈ 0.64 µM)	1 µg/mL (≈ 2.56 µM)	> 32 µg/mL	4 µg/mL (≈ 10.2 µM)				
C[C@H](O)c1nccn1[C@@H](C#Cc1ccc(-c2ccc(CO[C@H]3COC[C@@H]3O)cc2F)cc1)CO (single isomer, unassigned) [Compound 50]	0.5 µg/mL (≈ 1.07 µM)	2 µg/mL (≈ 4.29 µM)	4 µg/mL (≈ 8.57 µM)	2 µg/mL (≈ 4.29 µM)				
C[C@H](O)c1nccn1[C@@H](C#Cc1ccc(-c2ccc(OC3CN(CCC#N)C3)cc2)cc1)CO [Compound 93, 3-(3-((4′-((S)-4-hydroxy-3-(2-((S)-1-hydroxyethyl)-1H-imidazol-1-yl)but-1-yn-1-yl)-[1,1′-biphenyl]-4-yl)oxy)azetidin-1-yl)propanenitrile]					0.5 µg/mL (≈ 1.1 µM)	1 µg/mL (≈ 2.19 µM)	4 µg/mL (≈ 8.76 µM)	2 µg/mL (≈ 4.38 µM)
C[C@H](O)c1nccn1[C@@H](C#Cc1ccc(-c2ccc(O[C@@H]3COC[C@H]3O)c(F)c2)c(F)c1)CO (single isomer, unassigned) [Compound 10]	1 µg/mL (≈ 2.13 µM)	2 µg/mL (≈ 4.25 µM)	8 µg/mL (≈ 17 µM)	4 µg/mL (≈ 8.5 µM)				
C[C@H](O)c1nccn1[C@@H](C#Cc1ccc(-c2ccc(O[C@H]3COC[C@]3(O)C(F)(F)F)cc2)cc1)CO (racemic) [Compound 119, (rac-cis)-4-((4′-((S)-4-hydroxy-3-(2-((S)-1-hydroxyethyl)-1H-imidazol-1-yl)but-1-yn-1-yl)-[1,1′-biphenyl]-4-yl)oxy)-3-(trifluoromethyl)tetrahydrofuran-3-ol]	4 µg/mL (≈ 7.96 µM)	8 µg/mL (≈ 15.9 µM)	> 32 µg/mL	8 µg/mL (≈ 15.9 µM)				
C[C@H](O)c1nccn1[C@@H](C#Cc1ccc(-c2ccc(N[C@H]3COC[C@@H]3O)cc2)cc1)CO [Compound 71, (3R,4S)-4-((4′-((S)-4-hydroxy-3-(2-((S)-1-hydroxyethyl)-1H-imidazol-1-yl)but-1-yn-1-yl)-[1,1′-biphenyl]-4-yl)amino)tetrahydrofuran-3-ol]	2 µg/mL (≈ 4.61 µM)	4 µg/mL (≈ 9.23 µM)	4 µg/mL (≈ 9.23 µM)	4 µg/mL (≈ 9.23 µM)				
C[C@H](O)c1nccn1[C@@H](C#Cc1ccc(-c2ccc(CC3CN(CC#N)C3)cc2)cc1)CO (single isomer, unassigned) [Compound 105]	1 µg/mL (≈ 2.27 µM)	1 µg/mL (≈ 2.27 µM)	4 µg/mL (≈ 9.08 µM)	4 µg/mL (≈ 9.08 µM)				
C[C@H](O)c1nccn1[C@@H](C#Cc1ccc(-c2ccc(OC3CN(S(C)(=O)=O)C3)cc2)cc1)CO [Compound 89, (S)-2-(2-((S)-1-hydroxyethyl)-1H-imidazol-1-yl)-4-(4′-((1-(methylsulfonyl)azetidin-3-yl)oxy)-[1,1′-biphenyl]-4-yl)but-3-yn-1-ol]					1 µg/mL (≈ 2.08 µM)	2 µg/mL (≈ 4.15 µM)	8 µg/mL (≈ 16.6 µM)	4 µg/mL (≈ 8.31 µM)
